Patent US20260242759A1, “GQ/11 Protein Peptidomimetics” (Vrije Universiteit Brussel, priority 2022, published 2026)
Non-standard residues stand in square brackets, D forms with d. Residues, ends and D or L forms follow the SMILES beside them. Cha = N[C@@H](CC1CCCCC1)C(=O)O

Legend:
[1] = molecular target: T1, human ghrelin receptor (GHSR) (Homo sapiens, UniProt Q92847, C146S/C304S); assay: Bimane fluorescence assay on purified ghrelin receptor in nanodiscs; type: biochemical; settings: bimane labeled GHSR, in presence of JMV1843
T1 construct: integrin α5 fragment (N); polyhistidine tag (C); made in house; host or cells: E. coli BL21(DE3)
Outline: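 E. coli-expressed human ghrelin receptor (cysmin mutant, N-terminal integrin α5 fragment, C-terminal His-tag) purified into lipid nanodiscs and labelled with monobromobimane at Cys255 (16 h, 4° C, dark). Labelled receptor (0.2 μM final) incubated 2 h at 20° C with or without JMV1843 (20 μM) and peptidomimetics at varying molar ratios, or Gαqβ1γ2 at 1:5 receptor:G protein; emission scanned 440–520 nm with excitation at 380 nm for λmax shift.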

HEK293 1C8 cells = assay: MTT cytotoxicity assay; type: cell-based, human; settings: varying concentrations up to 40 μM, 3 h 45 min
Method: Cells were washed two times with PBS and incubated with 3-(4,5-dimethylthiazol-2-yl)-2,5-diphenyltetrazolium bromide (MTT) during 3 h, at 37° C. Afterwards, cells were washed once with PBS and then incubated for 10 min with DMSO. Plates were analysed with a Tecan Spark 10 M microplate reader.
An MTT assay was used to assess the cytotoxicity of the non-fluorescent Gq/11 peptidomimetics of Example 5. An MTT assay is a colorimetric test that evaluates the cell metabolic activity and reflects the cell viability.

T1 sequence (Q92847 whole entry C146S/C304S, the tested form may be a part): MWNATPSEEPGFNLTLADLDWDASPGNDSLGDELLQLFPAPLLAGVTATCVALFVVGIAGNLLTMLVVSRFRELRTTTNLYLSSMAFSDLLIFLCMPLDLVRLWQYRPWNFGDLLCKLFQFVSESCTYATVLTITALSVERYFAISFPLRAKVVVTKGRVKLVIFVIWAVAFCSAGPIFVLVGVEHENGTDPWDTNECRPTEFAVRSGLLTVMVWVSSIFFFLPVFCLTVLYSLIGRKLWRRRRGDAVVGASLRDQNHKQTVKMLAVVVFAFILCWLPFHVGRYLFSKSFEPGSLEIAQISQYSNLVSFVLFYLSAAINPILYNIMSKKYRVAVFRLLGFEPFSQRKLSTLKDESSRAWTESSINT

CC[C@H](C)[C@H](NC(=O)[C@@H](NC(=O)[C@H](CC(=O)O)NC(=O)[C@H](CCCCN)NC(=O)[C@@H](NC(=O)[C@H](C)NC(=O)[C@H](C)NC(=O)[C@H](Cc1ccccc1)NC(=O)[C@H](CCCCN)NC(=O)[C@H](CCCCN)NC(=O)[C@H](CCCCN)NC(C)=O)C(C)C)[C@@H](C)O)C(=O)N[C@@H](CC(C)C)C(=O)N[C@@H](CCC(N)=O)C(=O)N[C@@H](CC(C)C)C(=O)N[C@@H](CC(N)=O)C(=O)N[C@@H](CC(C)C)C(=O)N[C@@H](CCCCN)C(=O)N[C@@H](CCC(=O)O)C(=O)N[C@@H](Cc1ccc(O)cc1)C(=O)N[C@@H](CC(N)=O)C(=O)N[C@@H](CC1CCCCC1)C(=O)N[C@H](C(=O)O)C(C)C [SBL-GQ-04] (Ac-KKKFAAVKDTILQLNLKEYN[Cha]V-OH)
conformational change in the receptor [1]: not able to induce a conformational change
cytotoxicity / viability (HEK293 1C8 cells): No cytotoxicity
